Like-named read-outs stand apart in the source and are kept apart here. Peptide text beside a SMILES is read from it.
How the values were obtained:
PSD-95 PDZ3 = biological target: T1, PSD-95 PDZ3 (Homo sapiens, UniProt P78352); test: FP competition assay, PSD-95 PDZ3 (probe Cy5-CRIPT); format: binding; conditions: read-out: K i PDZ3
T1 construct: made in house; host or cells: E. coli One Shot BL21 Star (DE3)
Procedure: We used a competition set-up, where a constant concentration of isolated PSD-95 PDZ domain and a labeled reference ligand was titrated with unlabeled peptides from the GPCR C-tail library, typically within a 1–512 µM concentration range, and the resulting curves were fitted to obtain the IC50, which was used to calculate the K i (Figure 1). Three Cy5-labeled peptides with well-documented interactions with PSD-95 were used as reference ligands for the competition assay: Cy5-KIF1Bα was used for PDZ1 [20], Cy5-GluN2B (formerly known as NR2B) was used for PDZ2 and PDZ1-2 [21], and Cy5-CRIPT was used for PDZ3 [22] (Table S1). Competition with unlabeled versions of the reference ligands was used to validate the FP assay by comparison with the literature (Table S2).
FP measurements were performed in black, flat bottom 384-well NBS microplates (Corning) on a Synergy H4 microplatereader (BioTek Instruments) equipped with a 620/40 nm excitation filter, a 680/30 nm emission filter, and a 660 nm dichroic mirror. Polarization values were corrected with blank samples and samples with fluorescent probe alone. At least 10 data points were measured for each curve, and each data point was measured in triplicate. 25 nM Cy5-labeled probe was used for each assay: Cy5-KIF1Bα for PDZ1, Cy5-GluN2B for PDZ2 and PDZ1-2, and Cy5-CRIPT for PDZ3. All FP measurements were performed in a buffer containing 10 mM HEPES pH 7.4, 150 mM NaCl, and 1% BSA and incubated at least 15 min at room temperature before reading. The signal was stable for more than an hour, showing that the reaction was at equilibrium.
Saturation binding curves were used to determine the functionality of the PDZ domains by comparison with literature values and to calculate K i values from competition curves. Saturation binding curves were performed by mixing probe with a twofold dilution series of PDZ protein in a total volume of 30 µl. The K d was determined by fitting to a 1∶1 binding model: Y = Ymax × X/(X+K d).
For the competition binding curves, probe was mixed with a constant concentration of PDZ protein corresponding to the K d and a twofold dilution series of unlabeled peptide in a total volume of 30 µl. The baseline was determined using a sample containing only probe. The IC50 was determined by fitting to a 1∶1 binding model: Y = Ymax − Ymax × X/(X+IC50). The K i was calculated from the IC50 and from the K d for the interaction between the PDZ protein and the probe as described previously.

PSD-95 PDZ2 [1] = biological target: T2, PSD-95 PDZ2 (Homo sapiens, UniProt P78352); test: FP competition assay, PSD-95 PDZ2 (probe Cy5-GluN2B); format: binding; conditions: read-out: K i PDZ2
T2 construct: PDZ2 (aa 155–249); made in house; host or cells: E. coli One Shot BL21 Star (DE3)
Procedure: (§4) FP measurements were performed in black, flat bottom 384-well NBS microplates (Corning) on a Synergy H4 microplatereader (BioTek Instruments) equipped with a 620/40 nm excitation filter, a 680/30 nm emission filter, and a 660 nm dichroic mirror. Polarization values were corrected with blank samples and samples with fluorescent probe alone. At least 10 data points were measured for each curve, and each data point was measured in triplicate. […] All FP measurements were performed in a buffer containing 10 mM HEPES pH 7.4, 150 mM NaCl, and 1% BSA and incubated at least 15 min at room temperature before reading. The signal was stable for more than an hour, showing that the reaction was at equilibrium.
(§5) For the competition binding curves, probe was mixed with a constant concentration of PDZ protein corresponding to the K d and a twofold dilution series of unlabeled peptide in a total volume of 30 µl. The baseline was determined using a sample containing only probe. The IC50 was determined by fitting to a 1∶1 binding model: Y = Ymax − Ymax × X/(X+IC50). The K i was calculated from the IC50 and from the K d for the interaction between the PDZ protein and the probe as described previously [38].

PSD-95 PDZ1 [2] = biological target: T3, PSD-95 PDZ1 (Homo sapiens, UniProt P78352); test: FP competition assay, PSD-95 PDZ1 (probe Cy5-KIF1Bα); format: binding; conditions: 25 nM Cy5-KIF1Bα, 10 mM HEPES pH 7.4, 150 mM NaCl, 1% BSA, room temperature, read-out: K i PDZ1
T3 construct: PSD-95 PDZ1 (aa 61–151); made in house; host or cells: E. coli One Shot BL21 Star (DE3)
Procedure: as §4, §5

PSD-95 PDZ1 [3] = biological target: T3, PSD-95 PDZ1; test: SPR steady-state binding to immobilized PSD-95 PDZ1
Excerpt: (§1) To confirm the affinities measured by FP using an orthogonal method and to get information about the kinetics of the GPCR–PDZ interactions, we used SPR. This label-free, surface sensitive technique measures the binding of a ligand to an immobilized protein as a function of time based on refractive index changes.
(§2) For each of the PSD-95 PDZ domains, we determined the K d and the stability of the complexes for selected GPCR C-tail peptides. The residence time τ ( = 1/k d) was used as a convenient measure of the stability of the complexes. […] The K d determined from the steady-state responses of a range of C-tail peptide concentrations (Figure 2B and Table S4) correlated well with the K i values obtained by FP (Figure S1).
(§3) A Biacore X100 (GE Healthcare) SPR instrument equilibrated to 25.0°C and equipped with a Sensor Chip CM5 (for PDZ1 and PDZ2) or CM4 (for PDZ3) (GE Healthcare) was used for the SPR measurements. The running buffer was HBS-EP+ (10 mM HEPES pH 7.4, 150 mM NaCl, 3 mM EDTA, 0.05% Surfactant P-20 (GE Healthcare)).
PDZ domains were immobilized by amine coupling at a flow rate of 5 µl/min on a surface activated by a 7 min injection of a 1∶1 mixture of 0.4 M 1-ethyl-3-(3-dimethylaminopropyl) carbodiimide (EDC) and 0.1 M N-hydroxysuccinimide (NHS). The remaining active groups were deactivated by a 7 min injection of 1 M ethanolamine HCl pH 8.5. 750 RU PDZ1, 780 RU PDZ2, and 410 RU PDZ3 were immobilized.
GPCR C-tail peptide samples were injected in increasing concentrations for 1 min with 1 min dissociation time at 30 µl/min. Reproducibility was tested by injecting the 20 µM sample again after the highest concentration sample. The binding curves were corrected by subtraction of buffer blanks and the response from a reference surface that was activated with EDC and NHS and deactivated with ethanolamine like the surface with immobilized PDZ domain. For peptides with a cysteine, 1 mM dithiothreitol (DTT) was added to the samples. Steady-state response curves were plotted from the responses 10 s before injection end. The K d was determined by fitting steady-state response curves to a 1∶1 binding model with a linear component to corrrect for low affinity binding, probably resulting from the immobilization: Y = Ymax × X/(X+K d)+B × X.

PSD-95 PDZ2 [4] = biological target: T2, PSD-95 PDZ2; test: SPR steady-state binding to immobilized PSD-95 PDZ2
Excerpt: as §1, §2
as §3, with “Healthcare)). […]” for “Healthcare)).”
GPCR C-tail peptide samples were injected in increasing concentrations for 1 min with 1 min dissociation time at 30 µl/min. […] The K d was determined by fitting steady-state response curves to a 1∶1 binding model with a linear component to corrrect for low affinity binding, probably resulting from the immobilization: Y = Ymax × X/(X+K d)+B × X.

[5] = mean Ki ± SEM from two or more independent experiments
[6] = at least 15 min, Ki ± fitting error

SMILES	Ki (PSD-95 PDZ3) [µM]	Ki (PSD-95 PDZ2 [1]) [µM]	Ki (PSD-95 PDZ1 [2]; [5]) [µM]	Kd (PSD-95 PDZ1 [3]) [µM]	Kd (PSD-95 PDZ2 [4]) [µM]	Ki (PSD-95 PDZ1 [2]; [6]) [µM]
CC[C@H](C)[C@H](NC(=O)[C@H](CC(=O)O)NC(=O)[C@H](CCC(N)=O)NC(=O)[C@H](CCCNC(=N)N)NC(=O)[C@H](CC(=O)O)NC(=O)[C@H](CC(=O)O)NC(=O)[C@@H](N)Cc1ccc(O)cc1)C(=O)N[C@H](C(=O)N[C@@H](CC(=O)O)C(=O)N[C@@H](CC(C)C)C(=O)N[C@@H](CCC(N)=O)C(=O)N[C@H](C(=O)N[C@@H](CCC(=O)O)C(=O)N[C@H](C(=O)O)C(C)C)[C@@H](C)O)[C@@H](C)CC [BAI1] (H-YDDRQDIIDLQTEV-OH)	790 ± 93	29 ± 1.9	63 ± 6.3	120 ± 3.8	–	–
CC[C@H](C)[C@H](NC(=O)[C@H](CCCNC(=N)N)NC(=O)[C@H](CO)NC(=O)[C@@H](NC(=O)[C@H](CS)NC(=O)[C@@H](NC(=O)CNC(=O)[C@H](CCCNC(=N)N)NC(=O)[C@H](CC(=O)O)NC(=O)[C@H](CC(=O)O)NC(=O)[C@@H](N)Cc1ccc(O)cc1)[C@@H](C)O)[C@@H](C)O)C(=O)N[C@H](C(=O)N[C@H](C(=O)N[C@@H](CC(C)C)C(=O)O)[C@@H](C)O)[C@@H](C)O [SSTR1 Human] (H-YDDRGTCTSRITTL-OH)	200 ± 34	28 ± 2	50 ± 3.2	–	76 ± 1.5	–
CC[C@H](C)[C@H](NC(=O)[C@H](CCCNC(=N)N)NC(=O)[C@H](CO)NC(=O)[C@H](C)NC(=O)[C@H](CS)NC(=O)[C@@H](NC(=O)CNC(=O)[C@H](CCCNC(=N)N)NC(=O)[C@H](CC(=O)O)NC(=O)[C@H](CC(=O)O)NC(=O)[C@@H](N)Cc1ccc(O)cc1)[C@@H](C)O)C(=O)N[C@@H](CO)C(=O)N[C@H](C(=O)N[C@@H](CC(C)C)C(=O)O)[C@@H](C)O [SSTR1 Mouse] (H-YDDRGTCASRISTL-OH)	> 1000	90 ± 14	–	270 ± 9.1	–	270 ± 35

More lines, in order of falling Ki (PSD-95 PDZ3), values ahead:

Ki (PSD-95 PDZ3) [µM]	Ki (PSD-95 PDZ2 [1]) [µM]	Ki (PSD-95 PDZ1 [2]; [5]) [µM]	Kd (PSD-95 PDZ1 [3]) [µM]	Kd (PSD-95 PDZ2 [4]) [µM]	Ki (PSD-95 PDZ1 [2]; [6]) [µM]	SMILES
600 ± 67	450 ± 58	–	–	–	750 ± 80	CC[C@H](C)[C@H](NC(=O)[C@H](CCCNC(=N)N)NC(=O)[C@H](CCCNC(=N)N)NC(=O)[C@H](CC(=O)O)NC(=O)[C@H](CC(=O)O)NC(=O)[C@@H](N)Cc1ccc(O)cc1)C(=O)N1CCC[C@H]1C(=O)N[C@@H](CC(C)C)C(=O)N[C@H](C(=O)N[C@@H](CCCNC(=N)N)C(=O)N[C@H](C(=O)N[C@H](C(=O)N[C@H](C(=O)N[C@@H](Cc1ccccc1)C(=O)O)[C@@H](C)O)[C@@H](C)O)[C@@H](C)O)[C@@H](C)O [SSTR4 Human] (H-YDDRRIPLTRTTTF-OH)
370 ± 39	370 ± 53	280 ± 25	–	–	–	CC(C)C[C@H](NC(=O)[C@@H](NC(=O)[C@@H](NC(=O)[C@H](CO)NC(=O)[C@@H](NC(=O)[C@H](Cc1c[nH]cn1)NC(=O)CNC(=O)[C@H](CO)NC(=O)[C@H](CO)NC(=O)[C@H](CO)NC(=O)[C@H](CCCNC(=N)N)NC(=O)[C@H](CC(=O)O)NC(=O)[C@H](CC(=O)O)NC(=O)[C@@H](N)Cc1ccc(O)cc1)[C@@H](C)O)[C@@H](C)O)[C@@H](C)O)C(=O)O [CXCR2] (H-YDDRSSSGHTSTTL-OH)

Reference: paper PMC3653948, “PDZ Domain-Mediated Interactions of G Protein-Coupled Receptors with Postsynaptic Density Protein 95: Quantitative Characterization of Interactions” (PLoS ONE, 2013)
